Measurements published in patent publication US9642845B2, “Method for alleviating side effects of retinoic acid therapy and/or improving efficacy without interfering with efficacy” (University of Kentucky Research Foundation, priority 2007, dated 2017).

Tests used:
photodamaged skin [1] = assay: Clinical grading of tolerability (irritation/safety parameters); assay type: in vivo, human
Method: (§1) A clinical study was conducted to examined the combined use of retinoic acid therapy with myristyl nicotinate (MN), a lipophilic derivative of niacin that enhances skin barrier function, in subjects with mild to moderate facial photodamage.
(§2) The subjects were randomly assigned to one of three groups of 20 subjects each. One month prior to the initiation of retinoic acid therapy, one of the groups (group 3) began to apply to the entire face, both night and morning, a formulation containing 5% myristyl nicotinate. Groups 1 and 2 applied, in the same manner, a placebo formulation in which myristyl myristate replaced myristyl nicotinate. Upon initiation of retinoic acid therapy (baseline), group 1 (placebo/placebo+RA) continued to use the placebo formulation as above, group 2 (placebo/MN+RA) initiated use of the 5% myristyl nicotinate formulation and group 3 (MN/MN+RA) continued to use the 5% myristyl nicotinate formulation. Retinoic acid therapy involved a 0.025% concentration of the drug applied at night, immediately following application of the placebo or myristyl nicotinate containing formulations. This strength of retinoic acid was chosen for this study as the subjects had mild to moderate photodamage.
(§3) In order to assess both the tolerability and efficacy of retinoic acid therapy, subjects also were clinically graded on the right and/or left side of the face for efficacy/performance parameters and irritation/safety parameters at baseline, and weeks 2, 4, 8, and 12.
The most severe parameters of tolerability such as scaling/peeling and degree of erythema were graded on 3-point clinical scale at weeks 2, 4, 8, and 12, and mean values were determined. The frequency of less severe parameters of tolerability typical of retinoic acid therapy (including tightness/dryness, stinging, burning, and tingling) was also evaluated.

photodamaged skin [2] = assay: Clinical grading of efficacy (dyschromia, fine lines, wrinkles, tactile roughness, temple laxity); assay type: in vivo, human; conditions: for grading of temple laxity vs placebo/placebo+RA: 12 weeks
Method: as §1, §2, §3
Clinical grading involved evaluation of dyschromia, fine lines, shallow wrinkles, tactile roughness, and temple laxity as a function of treatment time (at weeks 2, 4, 8, and 12).

photodamaged skin [3] = assay: Rates of transepidermal water loss (TEWL), right cheek, Dermalab; assay type: in vivo, human; conditions: for change from baseline in mean rates of TEWL: 12 weeks
Method: as §1, §2
Determination of rates of TEWL provides a non-invasive assessment of relative skin barrier function. […] For the TEWL measurements, the instruments required a specified temperature and humidity range for optimal function, thus subjects were required to equilibrate to ambient conditions for at least 20 min prior to measurements. Temperature was maintained between 66 and 72° F. and relative humidity maintained between 15 and 55%. A computer-linked Dermalab instrument was used to measure TEWL at two points above the skin surface on the right cheeks of study subjects and the rate of water loss was calculated. Each TEWL measurement was averaged over a one-min measurement period.

photodamaged skin [4] = conditions: 5% myristyl nicotinate for 3 months, previous studies; cited from earlier work
photodamaged skin [5] = assay: Stratum corneum thickness of periorbital punch biopsies, clinical study; assay type: in vivo, human
Method: as §1
All subjects selected for the study were female, between the ages of 30 and 60, with a score of I to IV on the Fitzpatrick Skin Classification, mild to moderate photodamaged skin as defined by a modified Glogau Classification of I to II, and with presence of dyschromia on the face as determined by a woods light visual scan.
The subjects were randomly assigned to one of three groups of 20 subjects each. One month prior to the initiation of retinoic acid therapy, one of the groups (group 3) began to apply to the entire face, both night and morning, a formulation containing 5% myristyl nicotinate. Groups 1 and 2 applied, in the same manner, a placebo formulation in which myristyl myristate replaced myristyl nicotinate. […]
Accordingly, periorbital biopsy samples obtained from study subjects were evaluated for stratum corneum thickness. A board certified dermatologist collected a 2-mm punch biopsy from the right or left side of the face as determined by a randomization design of 7 randomly selected subjects from each group at baseline and after 12 weeks of treatment. […]
Histological images were taken of the H&E stained cross sections with an Olympus inverted stage microscope using a 10× by 0.45 Apochromat objective and a Nikon digital CCD camera. […] Suprapapillary epidermal thickness (as measured from the top of the dermal papilla to the top of the granular layer) and stratum corneum thickness (as measured from the top of the granular layer to the top of the stratum corneum) were measured. For each specimen, five different sites were measured and the average was calculated.

caspase 14 = assay: Caspase 14 expression in study subjects; assay type: in vivo, human
Description: (§4) To investigate this, the levels of expression of both caspase 14 and filaggrin were investigated in the groups of subjects referred to supra, (i.e., subjects who received placebo alone for one month, then placebo plus retinoic acid, and those who received placebo only for one month and then myristyl nicotinate and retinoic acid during the treatment phase.

filaggrin = assay: Filaggrin expression in study subjects; assay type: in vivo, human
Description: as §4

photodamaged skin [6] = assay: Suprapapillary epidermal thickness of periorbital punch biopsies; assay type: in vivo, human; conditions: for increase in epidermal thickness: 12 weeks
Method: as §1, §2
Accordingly, periorbital biopsy samples obtained from study subjects were evaluated for stratum corneum thickness. A board certified dermatologist collected a 2-mm punch biopsy from the right or left side of the face as determined by a randomization design of 7 randomly selected subjects from each group at baseline and after 12 weeks of treatment. The punch biopsies were formalin-fixed, embedded in paraffin, cut into 5 μm cross-sections, mounted on slides, and stained with hematoxylin-eosin (H&E).
Histological images were taken of the H&E stained cross sections with an Olympus inverted stage microscope using a 10× by 0.45 Apochromat objective and a Nikon digital CCD camera. ImageJ image analysis software (NIH) was used to examine the images and perform measurements. Suprapapillary epidermal thickness (as measured from the top of the dermal papilla to the top of the granular layer) and stratum corneum thickness (as measured from the top of the granular layer to the top of the stratum corneum) were measured. For each specimen, five different sites were measured and the average was calculated.
Since long term retinoid therapy is associated with an increase in epidermal thickness, changes in epidermal thickness in each of the groups over the 12-week course of the retinoic acid therapy were also assessed. The mean values for the placebo/placebo+RA, placebo/MN+RA, and MN/MN+RA groups at the baseline were 37.9, 38.8, and 39.3 μm, respectively. […]

[7] = MN/MN+RA group (prior and concurrent MN)

## CCCCCCCCCCCCCCOC(=O)c1cccnc1 [myristyl nicotinate]
Photodamaged skin [1]; [7]
  incidence of tingling: zero
Photodamaged skin [1]; concurrent use of myristyl nicotinate with retinoic acid therapy
  frequency of tightness/dryness, stinging, and burning: decreased
Photodamaged skin [1]; myristyl nicotinate treated subjects on 0.025% retinoic acid, difference not statistically significant
  grading of erythema vs placebo: consistently slightly higher
Photodamaged skin [1]; prior and concurrent myristyl nicotinate use with retinoic acid therapy
  frequency of tightness/dryness, stinging, and burning: further reduced
Photodamaged skin [2]; MN/MN+RA group, p=0.02
  grading of temple laxity vs placebo/placebo+RA: statistically significant greater improvement
Photodamaged skin [2]; MN/MN+RA group, weeks 4 to 12
  tactile roughness scores: consistently showed greater improvement
Photodamaged skin [2]; placebo/MN+RA group, not significant at p<0.05
  grading of temple laxity vs placebo/placebo+RA: trend for greater improvement
Photodamaged skin [3]; [7]
  change from baseline in mean rates of TEWL: not statistically significant
Photodamaged skin [3]; placebo/MN+RA group (concurrent MN)
  change from baseline in mean rates of TEWL: not statistically significant
Photodamaged skin [4]
  increase in stratum corneum thickness: more than 50%
Photodamaged skin [5]; MN/MN+RA group at baseline, after one month of 5% myristyl nicotinate, not significant at p<0.05
  higher mean stratum corneum thickness compared to the mean values of the other groups: approximately 11%
Photodamaged skin [5]; concurrent use of 5% myristyl nicotinate and 0.025% retinoic acid, 12 weeks
  change in stratum corneum thickness: did not result in a decrease in stratum corneum thickness
Caspase 14; placebo, retinoic acid and myristyl nicotinate for 3 months
  increase in caspase 14 expression: 24%
filaggrin; placebo, myristyl nicotinate and retinoic acid
  average increase in filaggrin expression: 13%
Photodamaged skin [6]; MN/MN+RA group at baseline, after one month of 5% myristyl nicotinate
  mean epidermal thickness: 39.3 μm
Photodamaged skin [6]; myristyl nicotinate concurrent with retinoic acid
  increase in epidermal thickness: approximately 3%
Photodamaged skin [6]; myristyl nicotinate prior/concurrent with retinoic acid, p=0.0007 vs placebo/placebo+RA
  increase in epidermal thickness: approximately 10%

## CC1=C(/C=C/C(C)=C/C=C/C(C)=C/C(=O)O)C(C)(C)CCC1 [retinoic acid, All-trans-retinoic acid]
Photodamaged skin [1]; retinoic acid therapy 0.025%, frequency reported in the study
  frequency of tingling: 2%
Photodamaged skin [3]; placebo/placebo+RA group, 12 week period, p<0.0001
  increase in rates of TEWL: approximately 45%
Photodamaged skin [5]; placebo/placebo+RA group, 12 weeks of 0.025% retinoic acid therapy, p=0.006 vs. baseline
  reduction in stratum corneum thickness: approximately 24%
Caspase 14; placebo plus retinoic acid for 3 months
  average increase in caspase 14 expression: 5%
filaggrin; subjects not treated with myristyl nicotinate (placebo plus retinoic acid)
  change in filaggrin expression: no change
Photodamaged skin [6]; retinoic acid and placebo cream, 12 week study
  decrease in mean epidermal thickness: approximately 5%
